Measured values as given in article PMC11423305, “Structure-Based Design of CBP/EP300 Degraders: When Cooperativity Overcomes Affinity” (JACS Au, 2024).

How the values were obtained:
Type in all cases: cell-based
EP300 = molecular target: T1, EP300 (Homo sapiens, UniProt Q09472); experiment: Quantification of EP300 degradation by Western blotting in LP1 cells; conditions: 5 μM compound, 16 h, Western blot
T1 construct: quantification of CBP and EP300 levels by Western blotting following 16 h treatment of LP1 cells; endogenous in cells; host or cells: LP1 cells
Protocol: (§1) LP1 cells were cultured in DMEM (Gibco, 41966-029) supplemented with 15 % FBS (Sigma, F9665); MM1S and LNCaP cells in RPMI 1640 ATCC modification (Gibco, […]
(§2) DMEM/F12 (Gibco, 11320074) supplemented with 1 % non-essential amino acids […]
(§3) additionally supplemented with 1 % penicillin/streptomycin (Gibco, 15070-063), and cells maintained in a humidified incubator with 5 % CO2 at 37 °C. The identity of all lines (except for MM1S which were recently purchased from ATCC) was authenticated by STR profiling (performed by Microsynth).
(§4) Quantification of CBP/EP300 degradation by Western blotting
(§5) LP1 cells plated on 6 well plates were treated with the stated compounds at a final concentration of 0.1 % DMSO for the stated time. Cells were harvested on ice, washed in PBS and lysed in RIPA buffer (50 mM tris pH 7.5, 2 mM EDTA, 150 mM NaCl, 0.5 % sodium deoxycholate, 1 % Triton X100) supplemented with cOmplete ™ protease inhibitor cocktail (Roche). Protein concentrations were determined using the Pierce ™ BCA Protein Assay Kit (Thermo Scientific, 23227) and equal amounts were separated on 4-12 % ExpressPl us™ PAGE gels (GenScript, M41215). Proteins were transferred to PVDF membranes, the membranes were blocked with 5 % milk (Merk Millipore, 115363) in PBS-T and proteins were stained with the following antibodies at 4 °C overnight: CBP […]
(§6) BRD4 (Bethyl Laboratories, A301-985A50, diluted 1:2000) and vinculin (Invitrogen, 42H89L44, diluted 1:1000). For detection, membranes were incubated for 1 h at room temperature with HRP-conjugated secondary antibodies (Southern Biotech, anti-rabbit […]
(§7) SuperSignal™ West Pico PLUS Chemiluminescent Substrate (Thermo Scientific, 34580) and the Vilber Fusion-FX7 imager. Bands were quantified using ImageJ software and protein levels normalized to protein from DMSO treated cells run on the same membrane. For dose response curves, data was fitted using a four -parameter dose-response curve in GraphPad Prism v. 9.5.1, where the top is fixed at 100 %. The DC50 was defined as the PROTAC concentration resulting in 50 % remaining protein. […]

LP1 cells = experiment: Cell viability (resazurin), LP1; conditions: Homo sapiens, LP-1, 72 h, 3 days
Protocol: The primer sequences used were:
Gene Gene ID Forward Primer (5’-3’) Reverse primer (5’-3’)
myc NM_001354870.1 GTAGTGGAAAACCAGCC […]
crebbp NM_004380.3 TGTCACAGGGACAGGTGC […]
Cells were plated onto 96 well plates at the following densities in 90 μl volume: 3x104
LP1 cells/well or 5x10^3 LNCaP cells/well both plated same day as treatment, or 2x104
MM1S cells/well or 1.5x10^3 SH-SY5Y cells/well both plated day prior to treatment.
Compounds were added in 10 μl to give the stated concentrations with a final
concentration of 0.1 % DMSO. Following 3 days of compound treatment, resazurin
(Acros Organics, 189900010) was added at a f inal concentration of 86 μM and incubated
for the following times: MM1S 5 h, LP1 3 h, LNCaP 1 h 30 min, SH-SY5Y 6 h.
Fluorescence (excitation = 560 nm, emission = 590 nm) was measured using a
spectraMax M5 microplate reader (Molecular Devices) and cell viability was calculated
relative to DMSO treated cells on the same plate. Data was fitted using a four -parameter
dose-response curve in GraphPad Prism v. 9.5.1, where the top is fixed at 100 %. GI50
values were calculated as the concentration required to inhibit cell viability to 50 %
relative to DMSO treated cells after 3 days.
Sample digestion and clean up: Treated cells were washed in PBS and cell pellets
were then lysed in 4 % SDS/Tris-HCl, treated with High Intensity Focused Ultrasound […]

CBP = molecular target: T2, CBP (Homo sapiens, UniProt Q92793); experiment: Quantification of CBP degradation by Western blotting in LP1 cells
T2 construct: quantification of CBP and EP300 levels by Western blotting following 16 h treatment of LP1 cells; endogenous in cells; host or cells: LP1 cells
Protocol: as §1, §2, §3, §4, §5, §6, §7

[1] = molecular target: CRBN and CBP catalytic core (Homo sapiens, UniProt Q92793+Q96SW2); experiment: FluoPPI cellular ternary complex formation, CBP catalytic core; conditions: U2OS cells, 6 h

T2 sequence (Q92793 whole entry): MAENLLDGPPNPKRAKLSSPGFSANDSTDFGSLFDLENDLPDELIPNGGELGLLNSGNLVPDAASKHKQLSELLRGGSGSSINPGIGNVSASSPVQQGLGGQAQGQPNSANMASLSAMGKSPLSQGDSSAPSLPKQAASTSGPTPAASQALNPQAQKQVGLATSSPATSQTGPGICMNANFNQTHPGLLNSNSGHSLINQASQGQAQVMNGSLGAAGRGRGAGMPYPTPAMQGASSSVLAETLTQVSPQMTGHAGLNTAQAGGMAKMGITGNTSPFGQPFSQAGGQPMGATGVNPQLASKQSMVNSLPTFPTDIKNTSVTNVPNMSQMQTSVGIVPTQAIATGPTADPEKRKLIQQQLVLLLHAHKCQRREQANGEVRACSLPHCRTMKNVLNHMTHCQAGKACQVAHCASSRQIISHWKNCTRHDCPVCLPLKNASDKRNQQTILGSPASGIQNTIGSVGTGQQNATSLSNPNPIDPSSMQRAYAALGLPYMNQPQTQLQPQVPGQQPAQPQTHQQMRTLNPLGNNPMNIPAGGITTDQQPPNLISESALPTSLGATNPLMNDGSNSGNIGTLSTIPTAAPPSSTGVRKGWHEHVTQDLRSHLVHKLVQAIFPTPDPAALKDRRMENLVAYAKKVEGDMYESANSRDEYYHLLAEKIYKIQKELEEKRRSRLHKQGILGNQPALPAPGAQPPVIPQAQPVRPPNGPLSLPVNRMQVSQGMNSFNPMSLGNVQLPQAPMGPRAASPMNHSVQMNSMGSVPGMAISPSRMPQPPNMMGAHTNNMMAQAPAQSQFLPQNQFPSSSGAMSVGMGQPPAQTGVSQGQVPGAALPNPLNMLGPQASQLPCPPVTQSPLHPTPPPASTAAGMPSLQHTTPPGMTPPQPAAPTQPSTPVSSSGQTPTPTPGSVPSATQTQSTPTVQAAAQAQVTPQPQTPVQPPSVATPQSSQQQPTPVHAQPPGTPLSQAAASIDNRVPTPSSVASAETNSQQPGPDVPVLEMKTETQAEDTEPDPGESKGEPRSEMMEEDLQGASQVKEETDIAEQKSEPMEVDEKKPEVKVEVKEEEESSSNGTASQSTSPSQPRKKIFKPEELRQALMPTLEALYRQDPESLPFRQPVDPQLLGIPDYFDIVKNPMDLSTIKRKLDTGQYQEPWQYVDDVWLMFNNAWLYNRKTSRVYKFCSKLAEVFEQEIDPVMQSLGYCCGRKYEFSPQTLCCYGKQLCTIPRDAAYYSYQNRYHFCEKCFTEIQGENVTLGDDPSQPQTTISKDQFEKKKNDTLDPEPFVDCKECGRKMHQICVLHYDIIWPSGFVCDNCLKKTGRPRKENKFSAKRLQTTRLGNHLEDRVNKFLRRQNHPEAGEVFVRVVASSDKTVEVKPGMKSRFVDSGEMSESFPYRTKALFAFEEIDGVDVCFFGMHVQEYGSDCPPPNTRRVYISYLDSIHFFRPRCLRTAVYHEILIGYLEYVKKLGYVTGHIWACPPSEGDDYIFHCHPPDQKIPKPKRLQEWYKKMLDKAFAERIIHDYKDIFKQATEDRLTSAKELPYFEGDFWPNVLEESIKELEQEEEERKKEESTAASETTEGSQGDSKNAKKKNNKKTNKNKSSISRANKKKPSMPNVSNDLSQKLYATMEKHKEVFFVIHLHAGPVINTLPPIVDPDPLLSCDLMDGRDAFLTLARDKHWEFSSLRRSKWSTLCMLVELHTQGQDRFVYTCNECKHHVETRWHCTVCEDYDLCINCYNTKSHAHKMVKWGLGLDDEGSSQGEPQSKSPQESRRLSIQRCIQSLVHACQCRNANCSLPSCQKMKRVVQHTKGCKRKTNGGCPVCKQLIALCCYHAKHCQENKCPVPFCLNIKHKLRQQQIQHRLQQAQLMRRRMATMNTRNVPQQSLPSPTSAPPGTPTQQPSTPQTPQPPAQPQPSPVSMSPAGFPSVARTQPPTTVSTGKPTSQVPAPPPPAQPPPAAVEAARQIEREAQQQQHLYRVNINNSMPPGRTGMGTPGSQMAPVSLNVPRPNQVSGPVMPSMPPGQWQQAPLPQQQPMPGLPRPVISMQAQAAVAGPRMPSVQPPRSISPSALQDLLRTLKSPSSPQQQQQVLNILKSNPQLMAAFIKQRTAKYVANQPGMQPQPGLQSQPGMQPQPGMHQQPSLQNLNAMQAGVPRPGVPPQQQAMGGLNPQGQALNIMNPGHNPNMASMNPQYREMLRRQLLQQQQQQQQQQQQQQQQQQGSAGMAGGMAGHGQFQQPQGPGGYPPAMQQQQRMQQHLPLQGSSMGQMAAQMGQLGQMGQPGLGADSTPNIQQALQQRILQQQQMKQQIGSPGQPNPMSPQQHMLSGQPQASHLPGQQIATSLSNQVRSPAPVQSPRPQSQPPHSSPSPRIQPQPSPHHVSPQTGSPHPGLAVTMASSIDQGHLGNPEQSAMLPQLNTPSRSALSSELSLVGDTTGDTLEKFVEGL
T1 sequence (Q09472 whole entry): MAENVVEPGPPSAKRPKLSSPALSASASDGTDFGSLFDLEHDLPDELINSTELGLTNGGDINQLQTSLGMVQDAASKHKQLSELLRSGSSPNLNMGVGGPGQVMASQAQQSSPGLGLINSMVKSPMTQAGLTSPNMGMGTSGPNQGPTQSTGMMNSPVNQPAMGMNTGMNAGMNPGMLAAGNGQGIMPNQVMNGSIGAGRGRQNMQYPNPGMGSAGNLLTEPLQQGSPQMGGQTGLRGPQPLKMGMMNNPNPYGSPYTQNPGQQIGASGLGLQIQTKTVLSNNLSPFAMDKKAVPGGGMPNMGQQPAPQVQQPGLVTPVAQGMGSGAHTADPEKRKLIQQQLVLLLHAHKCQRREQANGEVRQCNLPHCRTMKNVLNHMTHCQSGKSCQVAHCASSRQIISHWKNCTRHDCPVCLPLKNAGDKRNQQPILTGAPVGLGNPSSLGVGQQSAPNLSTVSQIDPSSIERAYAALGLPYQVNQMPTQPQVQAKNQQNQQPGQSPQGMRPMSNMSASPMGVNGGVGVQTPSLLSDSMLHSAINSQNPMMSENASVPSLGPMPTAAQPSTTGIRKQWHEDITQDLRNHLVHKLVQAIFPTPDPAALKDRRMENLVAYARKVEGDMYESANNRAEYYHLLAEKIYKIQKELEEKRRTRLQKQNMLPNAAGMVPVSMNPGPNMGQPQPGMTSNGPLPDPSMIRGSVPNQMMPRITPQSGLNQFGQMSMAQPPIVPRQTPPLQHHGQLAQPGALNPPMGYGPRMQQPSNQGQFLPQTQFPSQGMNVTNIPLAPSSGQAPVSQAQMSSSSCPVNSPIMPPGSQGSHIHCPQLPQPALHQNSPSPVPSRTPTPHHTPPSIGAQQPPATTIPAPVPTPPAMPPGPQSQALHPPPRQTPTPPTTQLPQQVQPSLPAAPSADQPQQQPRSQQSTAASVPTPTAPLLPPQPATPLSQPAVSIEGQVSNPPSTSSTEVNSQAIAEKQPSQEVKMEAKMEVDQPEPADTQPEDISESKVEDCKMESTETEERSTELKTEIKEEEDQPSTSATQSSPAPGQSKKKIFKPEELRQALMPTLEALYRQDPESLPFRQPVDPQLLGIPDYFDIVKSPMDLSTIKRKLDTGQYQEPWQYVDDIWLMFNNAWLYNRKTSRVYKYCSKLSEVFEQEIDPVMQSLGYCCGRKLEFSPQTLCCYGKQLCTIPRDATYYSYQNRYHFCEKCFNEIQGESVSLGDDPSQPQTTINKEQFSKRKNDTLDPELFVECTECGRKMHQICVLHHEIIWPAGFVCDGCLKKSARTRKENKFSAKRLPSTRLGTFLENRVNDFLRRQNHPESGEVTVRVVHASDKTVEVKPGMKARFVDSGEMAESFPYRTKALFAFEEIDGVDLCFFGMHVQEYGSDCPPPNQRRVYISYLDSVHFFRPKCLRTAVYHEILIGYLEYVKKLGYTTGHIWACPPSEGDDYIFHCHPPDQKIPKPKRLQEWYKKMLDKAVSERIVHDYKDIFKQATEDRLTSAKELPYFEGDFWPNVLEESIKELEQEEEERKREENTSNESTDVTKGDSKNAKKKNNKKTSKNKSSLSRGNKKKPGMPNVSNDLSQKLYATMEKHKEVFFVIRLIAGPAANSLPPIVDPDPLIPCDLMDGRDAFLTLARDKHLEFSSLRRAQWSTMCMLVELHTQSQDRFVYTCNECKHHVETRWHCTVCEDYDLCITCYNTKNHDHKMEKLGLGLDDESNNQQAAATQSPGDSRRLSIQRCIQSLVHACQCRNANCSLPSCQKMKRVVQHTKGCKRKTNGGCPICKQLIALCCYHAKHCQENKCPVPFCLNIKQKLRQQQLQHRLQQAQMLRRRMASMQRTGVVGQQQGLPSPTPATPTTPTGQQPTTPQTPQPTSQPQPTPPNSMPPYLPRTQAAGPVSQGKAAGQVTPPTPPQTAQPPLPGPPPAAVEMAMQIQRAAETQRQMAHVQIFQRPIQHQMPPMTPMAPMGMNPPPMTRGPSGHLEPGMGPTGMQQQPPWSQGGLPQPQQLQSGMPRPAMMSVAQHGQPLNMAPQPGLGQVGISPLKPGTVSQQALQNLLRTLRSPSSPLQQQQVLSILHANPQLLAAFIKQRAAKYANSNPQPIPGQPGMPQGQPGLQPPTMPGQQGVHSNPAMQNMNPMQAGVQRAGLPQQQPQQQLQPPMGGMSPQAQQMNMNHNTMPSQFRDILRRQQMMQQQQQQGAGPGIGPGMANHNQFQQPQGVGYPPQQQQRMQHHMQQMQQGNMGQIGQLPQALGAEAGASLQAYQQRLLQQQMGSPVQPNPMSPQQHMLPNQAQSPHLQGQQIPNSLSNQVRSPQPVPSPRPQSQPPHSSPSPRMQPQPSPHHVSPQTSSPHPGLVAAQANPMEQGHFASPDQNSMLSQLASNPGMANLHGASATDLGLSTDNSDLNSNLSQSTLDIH

% remaining EP300 (EP300): 43%
time at which CBP/EP300 degradation begins to occur (CBP; 1 μM, time course): ≤ 2 h
time to reach maximal CBP/EP300 degradation (Dmax) (CBP; 1 μM, time course): 16 to 24 h
% remaining CBP (CBP; 5 μM compound, 16 h, Western blot): 16%
DC50 (CBP; 16 h): 40 nM
Dmax (CBP; LP-1, 16 h): > 85%
ternary complex formation in cells with CBP catalytic core [1]: able to induce ternary complex formation
SMILES: Cc1cc2c(NC(=O)c3cc(NC(=O)CCCCCCCCCCNc4cccc5c4C(=O)N(C4CCC(=O)NC4=O)C5=O)cc(-c4ccn(C)n4)c3)cccc2nn1 (centres unmarked) [dCE-2]
GI50 (LP1 cells): 1500 nM
